According to PubChem BioAssay AID248 (DTP/NCI, 2004):
Inconclusive results and toxic doses are left out. Cut-off read from the data, not from the text of the source: active = T/C of 150% or more; inactive = T/C below 125%.

System: L1210 leukemia ip in BDF1 mice, survival T/C
Assay: NCI In Vivo Anticancer Drug Screen. Data for tumor model L1210 Leukemia (intraperitoneal) in B6D2F1 (BDF1) mice
Conditions: endpoint: mean survival time, higher = longer survival
Outline: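 Transplanted-tumor mice were given test agent; controls received vehicle only. Survival readings from the two groups were divided (treated over control).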

[1] = dose: 100.0 mg/kg/injection, schedule: Q01DX009 (ip), vehicle: other
[2] = dose: 200.0 mg/kg/injection, schedule: Q01DX009 (ip), vehicle: other
[3] = dose: 100.0 mg/kg/injection, schedule: Q04DX002 (ip), vehicle: Klucel (hydroxypropylcellulose) (HPC)
[4] = dose: 200.0 mg/kg/injection, schedule: Q04DX002 (ip), vehicle: Klucel (hydroxypropylcellulose) (HPC)
[5] = dose: 400.0 mg/kg/injection, schedule: Q04DX002 (ip), vehicle: Klucel (hydroxypropylcellulose) (HPC)
[6] = dose: 100.0 mg/kg/injection, schedule: Q04DX003 (ip), vehicle: saline
[7] = dose: 200.0 mg/kg/injection, schedule: Q04DX003 (ip), vehicle: saline
[8] = dose: 400.0 mg/kg/injection, schedule: Q04DX003 (ip), vehicle: saline
[9] = dose: 100.0 mg/kg/injection, schedule: Q04DX003 (ip), vehicle: saline with Tween-80
[10] = dose: 200.0 mg/kg/injection, schedule: Q04DX003 (ip), vehicle: saline with Tween-80
[11] = dose: 400.0 mg/kg/injection, schedule: Q04DX003 (ip), vehicle: saline with Tween-80
[12] = dose: 100.0 mg/kg/injection, schedule: Q01DX009 (ip), vehicle: saline with Tween-80
[13] = dose: 200.0 mg/kg/injection, schedule: Q01DX009 (ip), vehicle: saline with Tween-80
[14] = dose: 400.0 mg/kg/injection, schedule: Q01DX009 (ip), vehicle: saline with Tween-80
[15] = dose: 100.0 mg/kg/injection, schedule: Q01DX009 (ip), vehicle: Klucel (hydroxypropylcellulose) (HPC)
[16] = dose: 100.0 mg/kg/injection, schedule: Q04DX003 (ip), vehicle: Klucel (hydroxypropylcellulose) (HPC)
[17] = dose: 200.0 mg/kg/injection, schedule: Q01DX009 (ip), vehicle: Klucel (hydroxypropylcellulose) (HPC)
[18] = dose: 200.0 mg/kg/injection, schedule: Q04DX003 (ip), vehicle: Klucel (hydroxypropylcellulose) (HPC)
[19] = dose: 400.0 mg/kg/injection, schedule: Q01DX009 (ip), vehicle: Klucel (hydroxypropylcellulose) (HPC)
[20] = dose: 400.0 mg/kg/injection, schedule: Q04DX003 (ip), vehicle: Klucel (hydroxypropylcellulose) (HPC)
[21] = dose: 100.0 mg/kg/injection, schedule: Q01DX001 (ip), vehicle: carboxymethylcellulose (CMC)
[22] = dose: 200.0 mg/kg/injection, schedule: Q01DX001 (ip), vehicle: carboxymethylcellulose (CMC)
[23] = dose: 400.0 mg/kg/injection, schedule: Q01DX001 (ip), vehicle: carboxymethylcellulose (CMC)

Measured: T/C

Cc1cc(NC(=O)NCCCCCCNC(=O)Nc2cc(C)on2)no1
inactive: [1] 89 % of control | [2] 111 % of control | dose: 400.0 mg/kg/injection, schedule: Q01DX009 (ip), vehicle: other 100 % of control

OCC(O)C(O)C(O)C1COC(CBr)O1 (configuration not stated)
inactive: [3] 90 % of control | [4] 93 % of control | [5] 108 % of control

COC(=O)CCC(NC(=O)C1CSC(C)(C)N1C=O)C(=O)OC (configuration not stated)
inactive: [6] 104 % of control | [7] 101 % of control | [8] 101 % of control

C1=CC2C3C=CC(CC3)C2CC1 (configuration not stated)
inactive: [9] 106 % of control | [10] 97 % of control | [11] 87 % of control

O=C(NC(C(O)CO)C(O)C(O)CO)c1ccccc1 (configuration not stated)
inactive: [6] 104 % of control | [7] 105 % of control | [8] 102 % of control

COc1ccc2c(c1)C(=O)c1ccccc1-2
inactive: [9] 101 % of control | [10] 98 % of control | [11] 109 % of control

COC(=O)Nc1ccc2nc(NC(=O)OC)[nH]c2c1
inactive: dose: 20.0 mg/kg/injection, schedule: Q01DX009 (ip), vehicle: other 97 % of control | dose: 40.0 mg/kg/injection, schedule: Q01DX009 (ip), vehicle: other 101 % of control | dose: 80.0 mg/kg/injection, schedule: Q01DX009 (ip), vehicle: other 104 % of control

COn1c(=O)[nH]c2ccccc2c1=O
inactive: [12] 94 % of control | [13] 91 % of control | [14] 97 % of control

OC(C/C(Cc1ccccc1)=N/Nc1ccccc1)(C(F)(F)F)C(F)(F)F
inactive: [15] 94 % of control | [16] 96 % of control | [17] 96 % of control | [18] 88 % of control | [19] 100 % of control | [20] 107 % of control

CCOC(=O)C(Br)C(Br)c1cccc([N+](=O)[O-])c1 (configuration not stated)
inactive: [1] 105 % of control | dose: 100.0 mg/kg/injection, schedule: Q04DX003 (ip), vehicle: other 106 % of control | dose: 200.0 mg/kg/injection, schedule: Q04DX003 (ip), vehicle: other 94 % of control | dose: 400.0 mg/kg/injection, schedule: Q04DX003 (ip), vehicle: other 86 % of control

COc1cc(/C=N\Nc2ccccc2)ccc1OC(=O)c1ccccc1
inactive: dose: 100.0 mg/kg/injection, schedule: Q04DX002 (ip), vehicle: saline with Tween-80 91 % of control | dose: 200.0 mg/kg/injection, schedule: Q04DX002 (ip), vehicle: saline with Tween-80 91 % of control | dose: 400.0 mg/kg/injection, schedule: Q04DX002 (ip), vehicle: saline with Tween-80 98 % of control

Cc1c(C#N)c2nc(C(=O)c3ccc(Br)cc3)cc(-c3ccc(Br)cc3)n2c1C
inactive: dose: 50.0 mg/kg/injection, schedule: Q04DX003 (ip), vehicle: saline with Tween-80 98 % of control | [9] 111 % of control | [10] 103 % of control | [11] 106 % of control

O=C(Nc1ncn[nH]1)C(Cl)(Cl)Cl
inactive: dose: 100.0 mg/kg/injection, schedule: Q04DX003 (ip), vehicle: carboxymethylcellulose (CMC) 95 % of control | dose: 200.0 mg/kg/injection, schedule: Q04DX003 (ip), vehicle: carboxymethylcellulose (CMC) 100 % of control | dose: 400.0 mg/kg/injection, schedule: Q04DX003 (ip), vehicle: carboxymethylcellulose (CMC) 97 % of control

CCOC(=O)c1ccc(NCC(=O)CNc2nc(N)nc(N)c2[N+](=O)[O-])cc1
inactive: dose: 75.0 mg/kg/injection, schedule: Q01DX001 (ip), vehicle: other 95 % of control | dose: 150.0 mg/kg/injection, schedule: Q01DX001 (ip), vehicle: other 90 % of control | dose: 300.0 mg/kg/injection, schedule: Q01DX001 (ip), vehicle: other 87 % of control

CCCCC/C=N\NC(N)=S
inactive: [21] 96 % of control

ClC(=C(c1ccccc1)c1ccccc1)c1ccccc1
inactive: [15] 92 % of control | [16] 94 % of control | [17] 96 % of control | [18] 92 % of control | [19] 95 % of control | [20] 95 % of control

O=[N+]([O-])c1cc(Cl)[n+]([O-])c(Cl)c1
inactive: dose: 75.0 mg/kg/injection, schedule: Q01DX001 (ip), vehicle: carboxymethylcellulose (CMC) 101 % of control

OC(CBr)c1ccc(Cl)cc1 (configuration not stated)
inactive: [12] 96 % of control | [9] 98 % of control | [13] 96 % of control | [10] 104 % of control | [11] 89 % of control

Cc1ccc2c(C)cc(=O)[nH]c2c1
inactive: [21] 102 % of control | [12] 102 % of control | [22] 91 % of control | [13] 101 % of control | [23] 105 % of control | [14] 106 % of control

FC(F)(F)c1cccc(NC(=S)N2CCOCC2)c1
inactive: [15] 98 % of control | [17] 104 % of control | [19] 96 % of control

O=c1cc(CSCCO)[nH]c(=O)[nH]1
inactive: [6] 102 % of control | [7] 96 % of control | [8] 104 % of control

O=[N+]([O-])c1ccc(N/N=C2\CCCCCC2c2ccccc2)c([N+](=O)[O-])c1 (configuration not stated)
inactive: [3] 100 % of control | [4] 96 % of control | [5] 100 % of control

CCOc1ccccc1/C=N/Nc1c2ccccc2nc2ccccc12
inactive: dose: 100.0 mg/kg/injection, schedule: Q01DX001 (ip), vehicle: saline 90 % of control | dose: 200.0 mg/kg/injection, schedule: Q01DX001 (ip), vehicle: saline 97 % of control | dose: 400.0 mg/kg/injection, schedule: Q01DX001 (ip), vehicle: saline 92 % of control

C[CH2][Hg][S]c1nsc([S][Hg][CH2]C)n1
inactive: dose: 1.56 mg/kg/injection, schedule: Q01DX009 (ip), vehicle: Klucel (hydroxypropylcellulose) (HPC) 110 % of control | dose: 3.12 mg/kg/injection, schedule: Q01DX009 (ip), vehicle: Klucel (hydroxypropylcellulose) (HPC) 119 % of control | dose: 6.25 mg/kg/injection, schedule: Q01DX009 (ip), vehicle: Klucel (hydroxypropylcellulose) (HPC) 121 % of control | dose: 12.5 mg/kg/injection, schedule: Q01DX009 (ip), vehicle: Klucel (hydroxypropylcellulose) (HPC) 117 % of control | dose: 25.0 mg/kg/injection, schedule: Q01DX009 (ip), vehicle: Klucel (hydroxypropylcellulose) (HPC) 100 % of control

OCC1CCC(n2cnc3c(=S)nc[nH]c32)C1 (configuration not stated)
inactive: [21] 102 % of control | [22] 102 % of control | [23] 96 % of control

CC1(C)C=C(C(N)=O)C(C)(C)N1O
inactive: dose: 50.0 mg/kg/injection, schedule: Q01DX009 (ip), vehicle: other 98 % of control | [1] 101 % of control | [2] 95 % of control

Clc1ccc2c(c1)C1=NCCCN1c1cc(Cl)ccc1-2
inactive: dose: 2.5 mg/kg/injection, schedule: Q01DX009 (ip), vehicle: saline 105 % of control | dose: 2.5 mg/kg/injection, schedule: Q04DX002 (ip), vehicle: saline 100 % of control | dose: 2.5 mg/kg/injection, schedule: Q04DX003 (ip), vehicle: Klucel (hydroxypropylcellulose) (HPC) 102 % of control | dose: 5.0 mg/kg/injection, schedule: Q01DX009 (ip), vehicle: saline 97 % of control | dose: 5.0 mg/kg/injection, schedule: Q04DX002 (ip), vehicle: saline 96 % of control | dose: 5.0 mg/kg/injection, schedule: Q04DX003 (ip), vehicle: Klucel (hydroxypropylcellulose) (HPC) 104 % of control | dose: 10.0 mg/kg/injection, schedule: Q01DX009 (ip), vehicle: saline 97 % of control | dose: 10.0 mg/kg/injection, schedule: Q04DX002 (ip), vehicle: saline 111 % of control | dose: 10.0 mg/kg/injection, schedule: Q04DX003 (ip), vehicle: Klucel (hydroxypropylcellulose) (HPC) 104 % of control | dose: 20.0 mg/kg/injection, schedule: Q04DX003 (ip), vehicle: Klucel (hydroxypropylcellulose) (HPC) 91 % of control

CN1C(=O)C=C(N)C1=O
inactive: [6] 96 % of control | [7] 94 % of control | [8] 91 % of control
